Data published in PubChem BioAssay AID248 (DTP/NCI, 2004).
Toxic doses and inconclusive results are not listed. No stated cut-off is given here; in the data, active means T/C of 150% or more; inactive means T/C below 125%.

Test system: L1210 leukemia ip in BDF1 mice, survival T/C
Experiment: NCI In Vivo Anticancer Drug Screen. Data for tumor model L1210 Leukemia (intraperitoneal) in B6D2F1 (BDF1) mice
Details: higher = longer survival
Method in brief: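 Tumor was transplanted into mice, which were then dosed with test compound or vehicle alone. Survival was recorded for each group, and the treated figure was expressed relative to the control figure.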

[1] = endpoint: mean survival time, dose: 100.0 mg/kg/injection, schedule: Q04DX003 (ip), vehicle: Klucel (hydroxypropylcellulose) (HPC)
[2] = endpoint: mean survival time, dose: 200.0 mg/kg/injection, schedule: Q04DX003 (ip), vehicle: Klucel (hydroxypropylcellulose) (HPC)
[3] = endpoint: mean survival time, dose: 400.0 mg/kg/injection, schedule: Q04DX003 (ip), vehicle: Klucel (hydroxypropylcellulose) (HPC)
[4] = endpoint: mean survival time, dose: 12.5 mg/kg/injection, schedule: Q01DX009 (ip), vehicle: saline with Tween-80
[5] = endpoint: mean survival time, dose: 50.0 mg/kg/injection, schedule: Q01DX009 (ip), vehicle: saline with Tween-80
[6] = endpoint: mean survival time, dose: 75.0 mg/kg/injection, schedule: Q01DX001 (ip), vehicle: saline
[7] = endpoint: mean survival time, dose: 150.0 mg/kg/injection, schedule: Q01DX001 (ip), vehicle: saline
[8] = endpoint: mean survival time, dose: 100.0 mg/kg/injection, schedule: Q01DX001 (ip), vehicle: saline
[9] = endpoint: mean survival time, dose: 200.0 mg/kg/injection, schedule: Q01DX001 (ip), vehicle: saline
[10] = endpoint: mean survival time, dose: 400.0 mg/kg/injection, schedule: Q01DX001 (ip), vehicle: saline
[11] = endpoint: mean survival time, dose: 100.0 mg/kg/injection, schedule: Q04DX003 (ip), vehicle: saline with Tween-80
[12] = endpoint: mean survival time, dose: 200.0 mg/kg/injection, schedule: Q04DX003 (ip), vehicle: saline with Tween-80
[13] = endpoint: mean survival time, dose: 400.0 mg/kg/injection, schedule: Q04DX003 (ip), vehicle: saline with Tween-80
[14] = endpoint: mean survival time, dose: 6.25 mg/kg/injection, schedule: Q01DX009 (ip), vehicle: saline
[15] = endpoint: mean survival time, dose: 12.5 mg/kg/injection, schedule: Q01DX009 (ip), vehicle: saline
[16] = endpoint: mean survival time, dose: 25.0 mg/kg/injection, schedule: Q01DX009 (ip), vehicle: saline
[17] = endpoint: mean survival time, dose: 100.0 mg/kg/injection, schedule: Q04DX003 (ip), vehicle: acetone
[18] = endpoint: mean survival time, dose: 200.0 mg/kg/injection, schedule: Q04DX003 (ip), vehicle: acetone
[19] = endpoint: mean survival time, dose: 50.0 mg/kg/injection, schedule: Q01DX009 (ip), vehicle: saline
[20] = endpoint: mean survival time, dose: 100.0 mg/kg/injection, schedule: Q01DX009 (ip), vehicle: saline
[21] = endpoint: mean survival time, dose: 200.0 mg/kg/injection, schedule: Q01DX009 (ip), vehicle: saline

Measured: T/C

CC(=O)NC1CON(C(C)=O)C1=O (stereo unspecified)
inactive: [1] 97 % of control | [2] 103 % of control | [3] 103 % of control

N#Cc1nc2nc(C(F)(F)F)[nH]c2nc1C#N
inactive: [4] 101 % of control | endpoint: mean survival time, dose: 12.5 mg/kg/injection, schedule: Q04DX003 (ip), vehicle: saline with Tween-80 120 % of control | endpoint: mean survival time, dose: 25.0 mg/kg/injection, schedule: Q01DX009 (ip), vehicle: saline with Tween-80 103 % of control | endpoint: mean survival time, dose: 25.0 mg/kg/injection, schedule: Q04DX003 (ip), vehicle: saline with Tween-80 103 % of control | [5] 93 % of control

CCC1(c2ccccc2)C(=O)NC(=O)NC1=O
inactive: [6] 105 % of control | [7] 100 % of control | endpoint: median survival time, dose: 25.0 mg/kg/injection, schedule: Q12HX034 (sc), vehicle: saline 106 % of control | endpoint: median survival time, dose: 50.0 mg/kg/injection, schedule: Q12HX034 (sc), vehicle: saline 100 % of control

CC(=O)Nc1ccn(C2OC(COC(C)=O)C(OC3OC(COC(C)=O)C(OC(C)=O)C(OC(C)=O)C3OC(C)=O)C(OC(C)=O)C2OC(C)=O)c(=O)n1 (stereo unspecified)
inactive: endpoint: mean survival time, dose: 22.5 mg/kg/injection, schedule: Q01DX001 (ip), vehicle: carboxymethylcellulose (CMC) 103 % of control | endpoint: mean survival time, dose: 45.0 mg/kg/injection, schedule: Q01DX001 (ip), vehicle: carboxymethylcellulose (CMC) 100 % of control | endpoint: mean survival time, dose: 90.0 mg/kg/injection, schedule: Q01DX001 (ip), vehicle: carboxymethylcellulose (CMC) 100 % of control | endpoint: mean survival time, dose: 180.0 mg/kg/injection, schedule: Q01DX001 (ip), vehicle: carboxymethylcellulose (CMC) 100 % of control

CSc1ccc(C(CNC(C)=O)C(C#N)C#N)cc1 (stereo unspecified)
inactive: [8] 101 % of control | [9] 103 % of control | [10] 89 % of control

Cc1c(C)c2c(c(C)c1O)CCC(=O)O2
inactive: [11] 91 % of control | [12] 92 % of control | [13] 94 % of control

CCC(C)CC=O (stereo unspecified)
inactive: endpoint: mean survival time, dose: 50.0 mg/kg/injection, schedule: Q01DX001 (ip), vehicle: carboxymethylcellulose (CMC) 95 % of control | endpoint: mean survival time, dose: 100.0 mg/kg/injection, schedule: Q01DX001 (ip), vehicle: carboxymethylcellulose (CMC) 98 % of control | endpoint: mean survival time, dose: 200.0 mg/kg/injection, schedule: Q01DX001 (ip), vehicle: carboxymethylcellulose (CMC) 93 % of control | endpoint: mean survival time, dose: 400.0 mg/kg/injection, schedule: Q01DX001 (ip), vehicle: carboxymethylcellulose (CMC) 101 % of control

CCCCCCCCc1ccc(NC(N)=S)cc1
inactive: endpoint: mean survival time, dose: 3.12 mg/kg/injection, schedule: Q01DX009 (ip), vehicle: saline 104 % of control | [14] 107 % of control | [4] 92 % of control | [15] 111 % of control

OC(CCl)CBr (stereo unspecified)
inactive: [14] 96 % of control | endpoint: mean survival time, dose: 6.25 mg/kg/injection, schedule: Q04DX003 (ip), vehicle: saline 97 % of control | [15] 96 % of control | endpoint: mean survival time, dose: 12.5 mg/kg/injection, schedule: Q04DX003 (ip), vehicle: saline 92 % of control | [16] 94 % of control | endpoint: mean survival time, dose: 25.0 mg/kg/injection, schedule: Q04DX003 (ip), vehicle: saline 93 % of control

CC(C)CN(C)N=Nc1ccccc1C(=O)NN
inactive: [5] 100 % of control | endpoint: mean survival time, dose: 50.0 mg/kg/injection, schedule: Q04DX003 (ip), vehicle: saline with Tween-80 98 % of control | endpoint: mean survival time, dose: 100.0 mg/kg/injection, schedule: Q01DX009 (ip), vehicle: saline with Tween-80 98 % of control | [11] 98 % of control | endpoint: mean survival time, dose: 200.0 mg/kg/injection, schedule: Q01DX009 (ip), vehicle: saline with Tween-80 121 % of control | [12] 103 % of control

CC(=O)Nc1c(Cl)c(Cl)c2c(c1Cl)Cc1cc(Cl)c(Cl)cc1-2
inactive: endpoint: mean survival time, dose: 50.0 mg/kg/injection, schedule: Q01DX009 (ip), vehicle: acetone 93 % of control | endpoint: mean survival time, dose: 50.0 mg/kg/injection, schedule: Q04DX003 (ip), vehicle: acetone 94 % of control | endpoint: mean survival time, dose: 100.0 mg/kg/injection, schedule: Q01DX009 (ip), vehicle: acetone 95 % of control | [17] 93 % of control | endpoint: mean survival time, dose: 200.0 mg/kg/injection, schedule: Q01DX009 (ip), vehicle: acetone 97 % of control | [18] 93 % of control

Cc1nc(N)[nH]c(=O)c1N
inactive: endpoint: mean survival time, dose: 75.0 mg/kg/injection, schedule: Q01DX001 (ip), vehicle: saline with Tween-80 106 % of control | [1] 100 % of control | endpoint: mean survival time, dose: 150.0 mg/kg/injection, schedule: Q01DX001 (ip), vehicle: saline with Tween-80 101 % of control | [2] 96 % of control | endpoint: mean survival time, dose: 300.0 mg/kg/injection, schedule: Q01DX001 (ip), vehicle: saline with Tween-80 103 % of control | [3] 92 % of control

CC(C)CN(CC(C)C)Cn1nnc2ccccc21
inactive: endpoint: mean survival time, dose: 75.0 mg/kg/injection, schedule: Q01DX001 (ip), vehicle: carboxymethylcellulose (CMC) 100 % of control | endpoint: mean survival time, dose: 150.0 mg/kg/injection, schedule: Q01DX001 (ip), vehicle: carboxymethylcellulose (CMC) 94 % of control | endpoint: mean survival time, dose: 300.0 mg/kg/injection, schedule: Q01DX001 (ip), vehicle: carboxymethylcellulose (CMC) 108 % of control

CCCCCCCCN(CCCCCCCC)CC(=O)c1ccc2cc(Br)c3ccccc3c2c1
inactive: endpoint: mean survival time, dose: 100.0 mg/kg/injection, schedule: Q01DX001 (ip), vehicle: alcohol 101 % of control | endpoint: mean survival time, dose: 200.0 mg/kg/injection, schedule: Q01DX001 (ip), vehicle: alcohol 100 % of control | endpoint: mean survival time, dose: 400.0 mg/kg/injection, schedule: Q01DX001 (ip), vehicle: alcohol 103 % of control

CCN(CC)C(=O)c1cccnc1
inactive: [15] 102 % of control | [16] 89 % of control | [19] 93 % of control | [6] 102 % of control | [20] 105 % of control | [7] 94 % of control | [21] 93 % of control | endpoint: mean survival time, dose: 300.0 mg/kg/injection, schedule: Q01DX001 (ip), vehicle: saline 90 % of control

CC(N)C(=O)c1ccccc1 (stereo unspecified)
inactive: [19] 97 % of control | [20] 92 % of control

O=C(NNC1CCCCC1)c1ccccc1
inactive: [17] 107 % of control | [18] 109 % of control | endpoint: mean survival time, dose: 400.0 mg/kg/injection, schedule: Q04DX003 (ip), vehicle: acetone 86 % of control

CC(=O)Nc1ccc(/C=N/N=C(N)N)cc1
inactive: endpoint: mean survival time, dose: 63.0 mg/kg/injection, schedule: Q01DX Z (ip), vehicle: carboxymethylcellulose (CMC) 88 % of control | endpoint: mean survival time, dose: 125.0 mg/kg/injection, schedule: Q01DX Z (ip), vehicle: carboxymethylcellulose (CMC) 100 % of control

O=C(O)C(Cc1ccc(O)c([N+](=O)[O-])c1)N1C(=O)c2ccccc2C1=O (stereo unspecified)
inactive: [8] 101 % of control | [9] 95 % of control | [10] 95 % of control

CCOC(=O)c1ccc(N2C(=O)C=CC2=O)cc1
inactive: [11] 96 % of control | [12] 98 % of control | [13] 89 % of control

Cc1cccc(CN)n1
inactive: [19] 98 % of control | [20] 98 % of control | endpoint: mean survival time, dose: 100.0 mg/kg/injection, schedule: Q04DX003 (ip), vehicle: saline 104 % of control | [21] 97 % of control | endpoint: mean survival time, dose: 200.0 mg/kg/injection, schedule: Q04DX003 (ip), vehicle: saline 104 % of control
